Reference: the supplement of paper PMC9938120

system: FMOC25_1 (patient-derived low-grade serous ovarian cancer cells); experiment: drug sensitivity score (DSS3, normalised partial AUC of % inhibition dose-response) (DSS (score)); higher = more sensitive (stronger inhibition of viability); extreme values may be limits of the assay; conditions: 72 h; library: FO4B; assay format: 2D, 384-well, CellTiter-Glo
Method in brief: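 Cells were dispensed onto 384-well flat clear-bottom plates already holding compounds at five concentrations over a 10,000-fold range, using patient-derived ovarian cancer cells at passage under 10. Incubation lasted 72 h at 37 °C in 5% CO2, after which CellTiter-Glo viability data were processed in Breeze. Higher drug sensitivity scores, each a partial area under the percent-inhibition dose-response curve divided by the log of the upper asymptote, mean more sensitive cells.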

Compound | drug sensitivity score
COCC(=O)NC/C=C/c1ccc2ncnc(Nc3ccc(Oc4ccc(C)nc4)c(C)c3)c2c1 | 3.2
CCCCC/C=C/C=C1/C(=O)C=C[C@@H]1C/C=C\CCCC(=O)O [15D-PGJ2] | 0
CCN1CCN(Cc2ccc(-c3cc4c(N[C@H](C)c5ccccc5)ncnc4[nH]3)cc2)CC1 [NVP-AEE788] | 6
CC(=O)c1cnc2ccc(-c3cc(Cl)c(O)c(Cl)c3)nc2c1N[C@H]1CC[C@H](CN(C)C)CC1 [OTSSP167] | 7.7
C#Cc1cccc(Nc2ncnc3cc(OC)c(OCCCCCCC(=O)NO)cc23)c1 [CUDC-101] | 17
COc1cccc2cc(-c3nc([C@H]4CC[C@H](C(=O)O)CC4)n4ncnc(N)c34)[nH]c12 [OSI-027] | 8.2
COCC[n+]1c2c(n(Cc3cnccn3)c1C)C(=O)c1ccccc1C2=O [YM155] | 35.5
CC(C)NC(=O)COc1cccc(-c2nc(Nc3ccc4[nH]ncc4c3)c3ccccc3n2)c1 [SLx-2119] | 2.7
CCn1nnc2c(N3CCOCC3)nc(-c3ccc(NC(=O)Nc4ccc(C(=O)N5CCN(C)CC5)cc4)cc3)nc21 [PKI-402] | 19.1
CN1CCC(COc2cnc(-c3cccc(Cn4nc(-c5cccc(C#N)c5)ccc4=O)c3)nc2)CC1 | 0
CNC(=O)c1cc(Oc2ccc(NC(=O)Nc3cc(C(C)(C)C)nn3-c3ccc4ncccc4c3)c(F)c2)ccn1 [Rebastinib] | 0
O=NN(CCCl)C(=O)NCCCl [Carmustine] | 0.4
Cn1cc(-c2ccc3nnc(Sc4ccc5ncccc5c4)n3n2)cn1 [SGX-523] | 0
COc1cc(F)c(F)c(Nc2ccc(I)cc2F)c1NS(=O)(=O)C1(C[C@H](O)CO)CC1 [Refametinib] | 14.8
Cc1cc(C(=O)NOCCO)c(Nc2ccc(I)cc2F)n(C)c1=O [AZD-8330] | 22.2
CCN(CC)C(=S)SSC(=S)N(CC)CC [Disulfiram] | 3.7

Compound | drug sensitivity score
COc1ccc(C2=N[C@@H](c3ccc(Cl)cc3)[C@@H](c3ccc(Cl)cc3)N2C(=O)N2CCNC(=O)C2)c(OC(C)C)c1 [Nutlin-3] | 3.5
CNC(=O)c1ccc(N2C(=S)N(c3cnc(C#N)c(C(F)(F)F)c3)C(=O)C23CCC3)cc1F [ARN 509] | 0
O=C(Nc1cccc(C(F)(F)F)c1)Nc1cc(S(=O)(=O)NC2CC2)ccc1-c1ccsc1 [AGI-6780] | 0.4
Cc1ccccc1C(C(=O)NC1CCCCC1)N(C(=O)Cn1ccnc1C)c1cccc(F)c1 (stereo unspecified) [AGI-5198] | 0
CN(C[C@@H]1COCCO1)S(=O)(=O)Nc1ccc2ccc3ncc(-c4cnn(C)c4)cc3c(=O)c2c1 [MK-2461] | 2.8
Cc1cc(C)c(/C=C2\C(=O)Nc3ccccc32)[nH]1 [Semaxanib] | 4.4
CO[C@H]1/C=C\C=C(/C)C(=O)NC2=CC(=O)C(NCCN(C)C)=C(C[C@@H](C)C[C@H](OC)[C@H](O)[C@@H](C)/C=C(\C)[C@@H]1OC(N)=O)C2=O [Alvespimycin] | 4.1
Cc1c(NC(=O)OC[C@@H]2COCCN2)cn2ncnc(Nc3ccc4c(cnn4Cc4cccc(F)c4)c3)c12 | 9.1
COc1ccc(-c2cc3c(C)nc(N)nc3n([C@H]3CC[C@H](OCCO)CC3)c2=O)cn1 | 23.8
COc1cc(O)c2c(c1)/C=C/C[C@H](O)[C@H](O)C(=O)/C=C\C[C@H](C)OC2=O [(5Z)-7-Oxozeaenol] | 0
Cn1cc(-c2ccc3nnc(C(F)(F)c4ccc5ncccc5c4)n3n2)cn1 | 0
CNC(=O)c1ccc(-c2cnc3ncc(Cc4ccc5ncccc5c4)n3n2)cc1F [NVP-INC280] | 0
Cn1nccc1Nc1nccc(-c2ccn([C@H](CO)c3ccc(Cl)c(F)c3)c(=O)c2)n1 [GDC-0994] | 6
Cc1nc(C(=O)NCC(=O)O)c(O)c2ccc(Oc3ccccc3)cc12 [FG-4592] | 0
Cc1[nH]c(/C=C2\C(=O)Nc3ccccc32)c(C)c1CCC(=O)O [Orantinib] | 2.6
